US8030354B2, “Substituted biphenyl GPR40 modulators” (Amgen Inc., priority 2007, dated 2011)

Legend:
GPR40 [1] = target: T1, GPR40 (Homo sapiens, UniProt O14842); assay: Cell-based aequorin assay (CHO cells stably expressing GPR40 and aequorin); design: expressed in transfected cells; host or cells: CHO cells stably transfected with GPR40 and aequorin; conditions: activation of human GPR40, CHO cells, 0.01% HSA
Summary of the method: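 CHO cells stably co-expressing GPR40 and aequorin, loaded with coelenterazine (1 ug/mL, 2 h, room temperature) in H/HBSS with 20 mM Hepes and 0.01% fatty acid-free HSA. Serially diluted compounds added; luminescence recorded over 20 s. EC50 from dose-response of maximum relative light units.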

GPR40 [2] = target: T1, GPR40; assay: Inositol phosphate accumulation assay (A9_GPR40 cells); type: cell-based; design: expressed in transfected cells; host or cells: CHO cells stably transfected with GPR40 and aequorin; conditions: inositol phosphate assay, A9_GPR40 cells, 1 hour; read-out: IP3 EC50
Summary of the method: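 [^3H] inositol phosphate accumulation was measured by SPA after 1 h compound exposure at 37° C in HBSS/10 mM LiCl containing HSA, ending with a 20 mM formic acid quench. The GPR40-transfected A9 cells had first been labelled overnight (16 h) with 1 μCi/mL ^3H-inositol.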

T1 sequence (O14842 whole entry): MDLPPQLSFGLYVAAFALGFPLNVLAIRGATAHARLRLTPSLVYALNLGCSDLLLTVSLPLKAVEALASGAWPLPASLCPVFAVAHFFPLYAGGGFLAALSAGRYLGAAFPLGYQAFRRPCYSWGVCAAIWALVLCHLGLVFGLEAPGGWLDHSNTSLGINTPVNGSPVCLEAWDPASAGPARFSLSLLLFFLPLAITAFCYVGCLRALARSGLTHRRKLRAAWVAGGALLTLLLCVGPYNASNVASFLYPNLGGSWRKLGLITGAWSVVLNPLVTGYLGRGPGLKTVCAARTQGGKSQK

Compound	EC50 (GPR40 [1])	EC50 (GPR40 [2])
COc1ccc(F)c(-c2ccc(COc3cccc(C(CC(=O)O)CC4CC4)c3)cc2C(C)(C)C)c1 (single isomer, unassigned) [Example 69.4, (3R)-4-Cyclopropyl-3-(3-(((2-(1,1-dimethylethyl)-2′-fluoro-5′-(methyloxy)-1,1′-biphenyl-4-yl)methyl)oxy)phenyl)butanoic acid or (3S)-4-cyclopropyl-3-(3-(((2-(1,1-dimethylethyl)-2′-fluoro-5′-(methyloxy)-1,1′-biphenyl-4-yl)methyl)oxy)phenyl)butanoic acid]	100 to 1000 nM	10 to 100 nM
COc1ccc(F)c(-c2ccc(COc3cccc(C(CC(=O)O)CC4CC4)c3)cc2C2=CCCC2(C)C)c1 (single isomer, unassigned) [Example 69.6, (3R)-4-Cyclopropyl-3-(3-(((2-(5,5-dimethyl-1-cyclopenten-1-yl)-2′-fluoro-5′-(methyloxy)-1,1′-biphenyl-4-yl)methyl)oxy)phenyl)butanoic acid or (3S)-4-cyclopropyl-3-(3-(((2-(5,5-dimethyl-1-cyclopenten-1-yl)-2′-fluoro-5′-(methyloxy)-1,1′-biphenyl-4-yl)methyl)oxy)phenyl)butanoic acid]	100 to 1000 nM	10 to 100 nM
COc1cccc(-c2ccc(COc3cccc(C(CC(=O)O)CC4CC4)c3)cc2C2CCCC2(C)C)c1 (single isomer, unassigned) [Example 69.10]	10 to 100 nM	< 10 nM
COc1cccc(-c2ccc(COc3cccc(C(CC(=O)O)CC4CC4)c3)cc2C2CCCCCC2)c1 (single isomer, unassigned) [Example 69.11, (3R)-3-(3-(((2-Cycloheptyl-3′-(methyloxy)-1,1′-biphenyl-4-yl)methyl)oxy)phenyl)-4-cyclopropylbutanoic acid or (3S)-3-(3-(((2-cycloheptyl-3′-(methyloxy)-1,1′-biphenyl-4-yl)methyl)oxy)phenyl)-4-cyclopropylbutanoic acid]	100 to 1000 nM	10 to 100 nM
COc1ccc(F)c(-c2ccc(COc3cccc([C@@H](CC(=O)O)CC4CC4)c3)cc2C(C)C(C)C)c1 (single isomer, unassigned) [Example 69.12, (3R)-4-Cyclopropyl-3-(3-(((2-(1,2-dimethylpropyl)-2′-fluoro-5′-(methyloxy)-1,1′-biphenyl-4-yl)methyl)oxy)phenyl)butanoic acid or (3S)-4-cyclopropyl-3-(3-(((2-(1,2-dimethylpropyl)-2′-fluoro-5′-(methyloxy)-1,1′-biphenyl-4-yl)methyl)oxy)phenyl)butanoic acid]	100 to 1000 nM	< 10 nM
COc1ccc(F)c(-c2ccc(COc3cccc(C(CC(=O)O)CC4CC4)c3)cc2C2CCCCCCC2)c1 (single isomer, unassigned) [Example 69.13, (3R)-3-(3-(((2-Cyclooctyl-2′-fluoro-5′-(methyloxy)-1,1′-biphenyl-4-yl)methyl)oxy)phenyl)-4-cyclopropylbutanoic acid or (3S)-3-(3-(((2-cyclooctyl-2′-fluoro-5′-(methyloxy)-1,1′-biphenyl-4-yl)methyl)oxy)phenyl)-4-cyclopropylbutanoic acid]	100 to 1000 nM	< 10 nM
COc1ccc(F)c(-c2ccc(COc3cccc([C@@H](CC(=O)O)CC4CC4)c3)cc2C(O)C(C)(C)C)c1 (single isomer, unassigned) [Example 69.14, (3R)-4-Cyclopropyl-3-(3-(((2′-fluoro-2-(1-hydroxy-2,2-dimethylpropyl)-5′-(methyloxy)-1,1′-biphenyl-4-yl)methyl)oxy)phenyl)butanoic acid or (3S)-4-cyclopropyl-3-(3-(((2′-fluoro-2-(1-hydroxy-2,2-dimethylpropyl)-5′-(methyloxy)-1,1′-biphenyl-4-yl)methyl)oxy)phenyl)butanoic acid]	100 to 1000 nM	100 to 1000 nM
C=C(c1cc(COc2cccc([C@@H](CC(=O)O)CC3CC3)c2)ccc1-c1cc(OC)ccc1F)C(C)(C)C (single isomer, unassigned) [Example 69.15, (3R)-4-Cyclopropyl-3-(3-(((2-(1-(1,1-dimethylethyl)ethenyl)-2′-fluoro-5′-(methyloxy)-1,1′-biphenyl-4-yl)methyl)oxy)phenyl)butanoic acid or (3S)-4-cyclopropyl-3-(3-(((2-(1-(1,1-dimethylethyl)ethenyl)-2′-fluoro-5′-(methyloxy)-1,1′-biphenyl-4-yl)methyl)oxy)phenyl)butanoic acid]	100 to 1000 nM	10 to 100 nM
COc1ccc(F)c(-c2ccc(COc3cccc([C@@H](CC(=O)O)CC4CC4)c3)cc2CC(C)(C)C)c1 (single isomer, unassigned) [Example 69.16, (3R)-4-Cyclopropyl-3-(3-(((2-(2,2-dimethylpropyl)-2′-fluoro-5′-(methyloxy)-1,1′-biphenyl-4-yl)methyl)oxy)phenyl)butanoic acid or (3S)-4-cyclopropyl-3-(3-(((2-(2,2-dimethylpropyl)-2′-fluoro-5′-(methyloxy)-1,1′-biphenyl-4-yl)methyl)oxy)phenyl)butanoic acid]	10 to 100 nM	10 to 100 nM
COc1ccc(F)c(-c2ccc(COc3cccc([C@@H](CC(=O)O)CC4CC4)c3)cc2C(F)C(C)(C)C)c1 (single isomer, unassigned) [Example 69.17, (3R)-4-cyclopropyl-3-(3-(((2′-fluoro-2-(1-fluoro-2,2-dimethylpropyl)-5′-(methyloxy)-1,1′-biphenyl-4-yl)methyl)oxy)phenyl)butanoic acid or (3S)-4-cyclopropyl-3-(3-(((2′-fluoro-2-(1-fluoro-2,2-dimethylpropyl)-5′-(methyloxy)-1,1′-biphenyl-4-yl)methyl)oxy)phenyl)butanoic acid]	100 to 1000 nM	< 10 nM
COc1ccc(F)c(-c2ccc(COc3cccc([C@@H](CC(=O)O)CC4CC4)c3)cc2C(OC)C(C)(C)C)c1 (single isomer, unassigned) [Example 69.18, (3R)-4-Cyclopropyl-3-(3-(((2-(2,2-dimethyl-1-(methyloxy)propyl)-2′-fluoro-5′-(methyloxy)-1,1′-biphenyl-4-yl)methyl)oxy)phenyl)butanoic acid or (3S)-4-cyclopropyl-3-(3-(((2-(2,2-dimethyl-1-(methyloxy)propyl)-2′-fluoro-5′-(methyloxy)-1,1′-biphenyl-4-yl)methyl)oxy)phenyl)butanoic acid]	100 to 1000 nM	< 10 nM
COc1ccc(F)c(-c2ccc(COc3cccc([C@@H](CC(=O)O)CC4CC4)c3)cc2C(O)(C(C)C)C(C)C)c1 (single isomer, unassigned) [Example 69.19, (3R)-4-Cyclopropyl-3-(3-(((2′-fluoro-2-(1-hydroxy-2-methyl-1-(1-methylethyl)propyl)-5′-(methyloxy)-1,1′-biphenyl-4-yl)methyl)oxy)phenyl)butanoic acid or (3S)-4-cyclopropyl-3-(3-(((2′-fluoro-2-(1-hydroxy-2-methyl-1-(1-methylethyl)propyl)-5′-(methyloxy)-1,1′-biphenyl-4-yl)methyl)oxy)phenyl)butanoic acid]	100 to 1000 nM	100 to 1000 nM
COc1ccc(F)c(-c2ccc(COc3cccc(C(CC(=O)O)CC4CC4)c3)cc2CC(C)C)c1 (single isomer, unassigned) [Example 69.21, (3R)-4-Cyclopropyl-3-(3-(((2′-fluoro-5′-(methyloxy)-2-(2-methylpropyl)-1,1′-biphenyl-4-yl)methyl)oxy)phenyl)butanoic acid or (3S)-4-cyclopropyl-3-(3-(((2′-fluoro-5′-(methyloxy)-2-(2-methylpropyl)-1,1′-biphenyl-4-yl)methyl)oxy)phenyl)butanoic acid]	100 to 1000 nM	10 to 100 nM
COc1ccc(F)c(-c2ccc(COc3cccc(C(CC(=O)O)CC4CC4)c3)cc2C(C)C(C)(C)C)c1 (single isomer, unassigned) [Example 69.22]	100 to 1000 nM	< 10 nM
COCCO[C@H](c1cc(COc2cccc([C@@H](CC(=O)O)CC3CC3)c2)ccc1-c1cc(OC)ccc1F)C(C)(C)C (single isomer, unassigned) [Example 69.23]	10 to 100 nM	< 10 nM
COc1ccc(F)c(-c2ccc(COc3cccc([C@@H](CC(=O)O)CC4CC4)c3)cc2SC(C)C)c1 (single isomer, unassigned) [Example 69.24, (R)-4-Cyclopropyl-3-[3-(2′-fluoro-2-isopropylsulfanyl-5′-methoxy-biphenyl-4-ylmethoxy)-phenyl]-butyric acid or (S)-4-cyclopropyl-3-[3-(2′-fluoro-2-isopropylsulfanyl-5′-methoxy-biphenyl-4-ylmethoxy)-phenyl]-butyric acid]	100 to 1000 nM	10 to 100 nM
COc1ccc(F)c(-c2ccc(COc3cccc(C(CC(=O)O)CC4CC4)c3)cc2N2CCCCC2)c1 (single isomer, unassigned) [Example 69.28, (3R)-4-Cyclopropyl-3-(3-(((2′-fluoro-5′-(methyloxy)-2-(1-piperidinyl)-1,1′-biphenyl-4-yl)methyl)oxy)phenyl)butanoic acid or (3S)-4-cyclopropyl-3-(3-(((2′-fluoro-5′-(methyloxy)-2-(1-piperidinyl)-1,1′-biphenyl-4-yl)methyl)oxy)phenyl)butanoic acid]	100 to 1000 nM	10 to 100 nM
